This assay concerns the target T1, androgen receptors (Homo sapiens, UniProt P10275).
T1 sequence (P10275 1-920): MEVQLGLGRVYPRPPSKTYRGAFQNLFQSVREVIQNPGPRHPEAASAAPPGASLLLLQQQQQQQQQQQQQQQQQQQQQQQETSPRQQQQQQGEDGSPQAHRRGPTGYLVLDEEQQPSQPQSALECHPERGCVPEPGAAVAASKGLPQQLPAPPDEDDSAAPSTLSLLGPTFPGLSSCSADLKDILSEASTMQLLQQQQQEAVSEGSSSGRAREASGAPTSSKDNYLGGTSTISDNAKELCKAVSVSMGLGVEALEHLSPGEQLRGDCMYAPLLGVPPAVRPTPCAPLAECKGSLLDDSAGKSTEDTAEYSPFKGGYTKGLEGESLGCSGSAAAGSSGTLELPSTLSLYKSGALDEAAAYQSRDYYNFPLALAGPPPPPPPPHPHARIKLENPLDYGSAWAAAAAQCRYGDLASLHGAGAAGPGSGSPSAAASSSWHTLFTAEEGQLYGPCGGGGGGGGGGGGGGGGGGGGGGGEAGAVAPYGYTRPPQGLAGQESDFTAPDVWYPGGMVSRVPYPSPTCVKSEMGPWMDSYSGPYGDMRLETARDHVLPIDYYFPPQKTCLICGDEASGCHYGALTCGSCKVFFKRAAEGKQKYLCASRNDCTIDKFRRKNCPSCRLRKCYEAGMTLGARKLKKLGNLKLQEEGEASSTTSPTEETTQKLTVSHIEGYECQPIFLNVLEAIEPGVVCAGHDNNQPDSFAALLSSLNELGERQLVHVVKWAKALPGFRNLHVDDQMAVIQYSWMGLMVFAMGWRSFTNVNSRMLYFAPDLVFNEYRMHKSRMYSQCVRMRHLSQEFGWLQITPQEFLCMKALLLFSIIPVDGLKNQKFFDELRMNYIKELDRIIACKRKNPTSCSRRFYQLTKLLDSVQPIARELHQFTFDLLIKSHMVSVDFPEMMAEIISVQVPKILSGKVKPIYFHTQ
Kind of assay: receptor binding affinities to the androgen receptors (RBA). The note with it: receptor binding affinity to the androgen receptors; R 1881 (Methyltrienolone) = 100.

Molecules are shown by their SMILES.

For `CC12CCC3C4CCC(=O)C=C4CCC3C1CCC2(O)C(F)(F)C(F)(F)F` (stereo not drawn) [17β-Hydroxy-17α-pentafluoroethyl-estr-4-en-3-one], the RBA was 21%.
As to `C[C@]1(O)CC[C@H]2[C@@H]3CCC4=CC(=O)CCC4=C3C=C[C@@]21C` [R 1881 (Methyltrienolone), Methyltrienolone, reference compound], the RBA is recorded as 100%.
For `CC12CCC3C4CCC(=O)C(Cl)=C4CCC3C1CCC2(O)C(F)(F)C(F)(F)F` (stereo not drawn) [17β-Hydroxy-17α-pentafluoroethyl-4-chloro-estr-4-en-3-one], the RBA is recorded as 27%.
Then `CC1CC2=CC(=O)CCC2C2CCC3(C)C(CCC3(O)C(F)(F)C(F)(F)F)C12` (stereo not drawn) [17β-Hydroxy-17α-pentafluoroethyl-7α-methyl-estr-4-en-3-one], with 34%; and `CC12CCC(=O)C=C1CCC1C2C(O)CC2(C)C1CCC2(O)C(F)(F)F` (stereo not drawn) [17β,11β-Dihydroxy-17α-trifluoromethyl-androst-4-en-3-one], with 8.6%; and `CC1CC2=CC(=O)CCC2C2CCC3(C)C(CCC3(O)C(F)(F)F)C12` (stereo not drawn) [17β-Hydroxy-17α-trifluoromethyl-7α-methyl-estr-4-en-3-one], with 40%.
Then `CC12CCC3C4CCC(=O)C(O)=C4CCC3C1CCC2(O)C(F)(F)F` (stereo not drawn) [17β,4-Dihydroxy-17α-trifluoromethyl-estr-4-en-3-one], with 15%.
Then `CC12CCC3C4CCC(=O)C(O)=C4CCC3C1CCC2(O)C(F)(F)C(F)(F)F` (stereo not drawn) [17β,4-Dihydroxy-17α-pentafluoroethyl-estr-4-en-3-one], with 20%; and `CC12CCC(=O)C(Cl)=C1CCC1C2CCC2(C)C1CCC2(O)C(F)(F)F` (stereo not drawn) [17β-Hydroxy-17α-trifluoromethyl-4-chloro-androst-4-en-3-one], with 20%; and `C[C@]12CCC(=O)C=C1CC[C@@H]1[C@@H]2CC[C@@]2(C)[C@H]1CC[C@@]2(O)C(F)(F)F` [17β-Hydroxy-17α-trifluoromethyl-androst-4-en-3-one], with 9.4%.
`CC1CC2=CC(=O)CCC2(C)C2CCC3(C)C(CCC3(O)C(F)(F)F)C12` (stereo not drawn) [17β-Hydroxy-17α-trifluoromethyl-7α-methyl-androst-4-en-3-one] yielded an RBA of 30%.
Turning to `CC12CCC3C4CCC(=O)C(Cl)=C4CCC3C1CCC2(O)C(F)(F)F` (stereo not drawn) [17β-Hydroxy-17α-trifluoromethyl-4-chloro-estr-4-en-3-one], the RBA is listed as 41%.

Source of the values: US20040024231A1, “17Alpha fluoroalkyl steroids, method for producing the same and pharmaceutical compositions containing said compounds” (priority 2000, published 2004).
